Article PMC7221826, “5-Oxo-hexahydroquinoline Derivatives and Their Tetrahydroquinoline Counterparts as Multidrug Resistance Reversal Agents” (Molecules, 2020)
“Also recorded” adds a separate entry of the source.

Experiments:
A-549 = assay: MTT cell viability assay, A-549; assay type: cell-based, human; details: Homo sapiens, A549, 72 h, read-out: IC50 (µM) in Cultured Cells A-549
Excerpt: (§1) Cell lines used for cytotoxicity assays included MCF-7 (human breast adenocarcinoma), A549 (human lung adenocarcinoma), K562 (human chronic myelogenous leukemia) and HEK-293 (human embryonic kidney) cells and were obtained from the Iranian Biological Resource Center, Tehran, Iran. MES-SA-DX5 multidrug resistant human uterine sarcoma, over-expressing P-gp and their parental non-resistant MES-SA cell lines were purchased from Sigma-Aldrich (St. Louis, MO, USA). All cells, except for HEK-293, were cultured in RPMI 1640 supplemented with 10% FBS and 100 units/mL penicillin-streptomycin at 37 °C in humidified air containing 5% CO2. HEK-293 cells were maintained in DMEM-F12 medium containing L-glutamine 2 mM supplemented with FBS and penicillin-streptomycin. MES-SA-DX5 cells were maintained in media containing 100 nM doxorubicin in order to ensure that only drug-resistant cells continue to grow.
(§2) Cytotoxicity of the test compounds were evaluated by MTT assay. In this method, reduction of MTT, a yellow tetrazolium salt to the purple formazan, by cellular dehydrogenase enzymes is determined as an index of cell viability. Cancer cells were seeded into 96-well plates (3–5 × 10^3 cells/well) and incubated for 24 h at 37 °C. Afterwards, four different concentrations of synthesized derivatives were added in triplicate and the cells were incubated at 37 °C for another 72 h, after which the media was replaced with MTT solution at a concentration of 0.5 mg/mL was added for MTT assay. After another 4h, formazan crystals were dissolved in 200 μL DMSO for 90 min and absorbance was measured at a wavelength of 570 nm with background correction at 650 nm using a microplate reader (model 680, Bio-Rad, Hercules, CA, USA) and IC50 for each compound was calculated with CurveExpert version 1.34 for Windows.

MES-SA-DX5 = assay: MTT cell viability assay, MES-SA-DX5; assay type: cell-based, human; details: Homo sapiens, MES-SA/Dx5, 72 h, multidrug resistant, P-gp overexpressing, read-out: IC50 (µM) in Cultured Cells MES-SA-DX5
Excerpt: as §1, §2

P-gp = molecular target: T1, P-gp (Homo sapiens, UniProt P08183); assay: MDR reversal assay: flow cytometric detection of Rhodamine123 efflux/accumulation in MES-SA-DX5 cells; assay type: cell-based; details: compounds at 5, 10 and 25 µM, 5 µM Rh123
T1 construct: MES-SA-DX5 is a resistant cell line, which overexpresses P-gp as a result of constant exposure to doxorubicin; host or cells: MES-SA-DX5 human uterine sarcoma cells
T1 sequence (P08183 whole entry): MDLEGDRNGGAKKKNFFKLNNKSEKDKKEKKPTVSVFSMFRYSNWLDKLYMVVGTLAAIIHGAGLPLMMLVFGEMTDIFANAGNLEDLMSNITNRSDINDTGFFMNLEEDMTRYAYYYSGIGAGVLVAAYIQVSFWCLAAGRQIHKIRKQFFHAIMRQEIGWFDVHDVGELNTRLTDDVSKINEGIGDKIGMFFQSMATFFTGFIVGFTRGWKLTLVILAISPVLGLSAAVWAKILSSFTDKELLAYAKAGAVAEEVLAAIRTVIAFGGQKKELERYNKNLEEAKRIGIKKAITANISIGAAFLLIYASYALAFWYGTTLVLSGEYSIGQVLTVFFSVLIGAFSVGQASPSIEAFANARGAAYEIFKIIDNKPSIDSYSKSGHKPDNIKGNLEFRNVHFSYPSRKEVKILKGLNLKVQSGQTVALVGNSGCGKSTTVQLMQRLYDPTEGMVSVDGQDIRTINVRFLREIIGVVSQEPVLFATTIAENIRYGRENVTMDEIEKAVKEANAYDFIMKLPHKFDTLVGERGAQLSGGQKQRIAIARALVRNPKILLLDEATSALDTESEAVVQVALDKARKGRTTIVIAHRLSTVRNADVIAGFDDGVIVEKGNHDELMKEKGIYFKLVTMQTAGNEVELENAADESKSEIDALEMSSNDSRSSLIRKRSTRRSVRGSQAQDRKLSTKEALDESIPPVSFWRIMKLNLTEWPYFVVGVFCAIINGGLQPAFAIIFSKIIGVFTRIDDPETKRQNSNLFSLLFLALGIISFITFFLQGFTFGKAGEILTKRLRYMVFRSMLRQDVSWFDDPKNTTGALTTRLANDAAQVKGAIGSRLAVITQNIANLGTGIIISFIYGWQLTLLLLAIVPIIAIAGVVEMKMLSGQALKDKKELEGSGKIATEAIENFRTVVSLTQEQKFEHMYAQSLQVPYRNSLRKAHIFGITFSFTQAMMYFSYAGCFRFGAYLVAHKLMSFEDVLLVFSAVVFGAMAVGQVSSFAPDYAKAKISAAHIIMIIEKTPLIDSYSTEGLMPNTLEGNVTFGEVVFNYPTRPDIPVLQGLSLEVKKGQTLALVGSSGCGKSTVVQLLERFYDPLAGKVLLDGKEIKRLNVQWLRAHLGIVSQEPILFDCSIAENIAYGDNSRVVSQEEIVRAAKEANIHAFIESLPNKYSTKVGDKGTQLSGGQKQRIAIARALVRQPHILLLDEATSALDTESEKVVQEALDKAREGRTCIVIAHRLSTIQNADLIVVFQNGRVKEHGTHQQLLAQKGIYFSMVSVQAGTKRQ
Procedure: Rhodamine 123 (Rh123) is a well-known substrate of P-gp and it is readily pumped out of the cells by this ABC transporter. The amount of retained Rh123 in the cells indicates the efflux function of the target transporter. Flow cytometric analysis was used for assessment of intracellular Rh123 as previously described.
Briefly, a suspension of the multidrug resistant uterine sarcoma MES-SA-DX5 cells at a density of 5 × 10^5 cells/mL in growth medium was prepared. Four-hundred microliters (400 µL) of the synthesized compounds with final concentration of 5, 10, and 25 µM were added to 500 µL of the cell suspension. Verapamil was also tested as a positive control. After an incubation of 20 min, 50 µL of Rh123 at a final concentration of 5 µM was added and incubated for further 30 min at 37 °C. The cells were then centrifuged and washed twice with ice-cold PBS, and then resuspended in PBS and kept on ice. Rh123 accumulated in cells was then quantified by a FACSCalibur flow cytometer (Becton Dickinson, San Jose, CA, USA) with excitation and emission wavelengths of 488 and 530 nm, respectively. Geometric means of fluorescence intensity values were determined using Flowing Software (http://flowingsoftware.btk.fi/).
Accumulation of Rhodamine123 (Rh123), caused by inhibition of P-gp-mediated efflux, was determined by flow cytometry in the multidrug resistant uterine sarcoma MES-SA-DX5 cell line. Verapamil was used as a positive control. MES-SA-DX5 is a resistant cell line, which overexpresses P-gp as a result of constant exposure to doxorubicin. Alterations in the amount of the fluorescent Rh123 retained inside the MES-SA-DX5 cells can be plausibly related to the inhibition of the activity of P-gp efflux pump in the cells (Figure 1). The ratio of the geometric mean value of cells treated with synthesized compounds to the geometric mean value of the control untreated cells are show in Figure 2.
Figure 2 MDR reversal assessed by flow cytometric detection of Rhodamine123 efflux in MES-SA-DX5 cells. Cells were suspended in RPMI 1640 and treated with verapamil (Ver, positive control) or synthesized derivatives. After incubation for 20 min, 5 μM Rh123 was added, the cells were incubated for another […] at 37 °C and then centrifuged and washed twice with ice-cold PBS and resuspended in PBS. The fluorescence caused by the presence of Rh123 in cells was measured using a flow cytometer with excitation and emission wavelengths of 488 nm and 530 nm, respectively. The values represent the mean ± S.E.M. of 3–5 experiments. * The difference between treated and controlled cells are statistically significant (p ˂ 0.05).

MCF-7 = assay: MTT cell viability assay, MCF-7; assay type: cell-based, human; details: Homo sapiens, MCF7, 72 h, read-out: IC50 (µM) in Cultured Cells MCF-7
Excerpt: as §1, §2

K562 = assay: MTT cell viability assay, K562; assay type: cell-based, human; details: Homo sapiens, K562, 72 h, read-out: IC50 (µM) in Cultured Cells K562
Excerpt: as §1, §2

MES-SA = assay: MTT cell viability assay, MES-SA; assay type: cell-based, human; details: MTT
Excerpt: as §1, §2

HEK-293 = assay: MTT cell viability assay, HEK-293; assay type: cell-based, human; details: Homo sapiens, HEK293, 72 h, non-cancerous, read-out: IC50 (µM) in Cultured Cells HEK-293
Excerpt: as §1, §2

MES-SA-DX5 cells = assay: Cell cycle analysis by propidium iodide (PI)-RNase flow cytometry; assay type: cell-based, human; parameters: Sub G1: unit not given here; details: 24 h
Procedure: The analysis of cells in different phases of cell cycle and sub-G1 was performed using propidium iodide (PI)-RNase assay by flow cytometry. MES-SA-DX5 cells were seeded in 12-well plates (1 × 10^6 cells/well) and treated with different concentrations of synthesized compounds for 24 h. The cells were then collected, washed with PBS, and fixed with 70% ethanol overnight at –20 °C. After at least 24 h, fixed cells were washed with PBS and subsequently stained with a DNA staining solution containing PI 20 μg/mL and RNase 200 μg/mL at room temperature for 30 min in the dark. Twenty thousand cells of each sample were analyzed using a BD FACSCalibur flow cytometer (BD Biosciences, USA) and the amount of the cells in sub-G1, G0/G1, S, and G2/M phases were estimated using CellQuest (Becton Dickinson, San Jose, CA, USA) software.
Therefore, it could be concluded that these compounds cause cytotoxicity in drug resistant MES-SA-DX5 cells by induction of apoptosis in these cells.
Figure 3 Effect of synthesized derivatives on cell cycle alterations in MES-SA-DX5 drug resistant cells. The cells in different phases of cell cycle were monitored using propidium iodide (PI)-RNase assay by flow cytometry. MES-SA-DX5 cells were seeded in 12-well plates (1 × 10^6 cells/well) and treated with different concentrations of synthesized compounds for 24 h. The cells were then collected, washed with PBS and fixed with 70% ethanol overnight at –20 °C. After at least 24 h, fixed cells were washed with PBS and subsequently stained with a DNA staining solution containing PI 20 μg/mL and RNase 200 μg/mL at room temperature for 30 min in the dark. Twenty thousand cells of each sample were analyzed using a FACS Calibur flow cytometer (BD Biosciences, USA). Representative histograms of cells treated with synthesized compounds are shown. An increase in sub-G1 phase cells could be observed after treatment with A1, A2, B1, and B2 compounds.

With Cc1nc(NC(=O)c2c(C)nc3c(c2-c2ccc(Br)cc2)C(=O)CCC3)cs1 [Compound B2, 4-(4-Bromophenyl)-2-methyl-N-(2-methylthiazol-4-yl)-5-oxo-5,6,7,8-tetrahydroquinoline-3-carboxamide] the IC50 (A-549) was 86.8 ± 5 µM, the IC50 (MES-SA-DX5) was 43.6 ± 2.8 µM and the “P-gp inhibitory activity (Rh123 accumulation)” value (P-gp) was “significantly blocked P-gp efflux; also recorded: highest P-gp inhibitory activities”. For the same compound, the IC50 (MCF-7) was 77.7 ± 8.7 µM, the IC50 (K562) was 10.1 ± 1.5 µM and the melting point was 261 °C. For the same compound, the IC50 (MES-SA; Homo sapiens, MES-SA, 72 h, parental non-resistant, read-out: IC50 (µM) in Cultured Cells MES-SA) was greater than 100 µM, the “effect against parental non-resistant MES-SA cells” value (MES-SA) was “did not show any effect” and the IC50 (HEK-293) was greater than 50 µM. It also gave a G0/G1 (MES-SA-DX5 cells; 10 µM) of 53.00 ± 3.6, a G2/M (MES-SA-DX5 cells; 10 µM) of 24.13 ± 2.4 and an S (MES-SA-DX5 cells; 10 µM) of 21.80 ± 1.5. The “Sub G1” value (MES-SA-DX5 cells; 10 µM) was 0.96 ± 0.1, the G0/G1 (MES-SA-DX5 cells; 25 µM) was 55.83 ± 2.6 and the G2/M (MES-SA-DX5 cells; 25 µM) was 22.23 ± 1.4. For the same compound, the S (MES-SA-DX5 cells; 25 µM) was 20.30 ± 1.7, the “Sub G1” value (MES-SA-DX5 cells; 25 µM) was 1.57 ± 0.4 and the G0/G1 (MES-SA-DX5 cells; 100 µM) was 47.00 ± 0.6. The G2/M (MES-SA-DX5 cells; 100 µM) was 29.27 ± 1.8 and the S (MES-SA-DX5 cells; 100 µM) was 19.48 ± 1.8.
